PMC9995496, “A screen for MeCP2-TBL1 interaction inhibitors using a luminescence-based assay” (Scientific Reports, 2023)
Structures can show the parent of a compound that is named as a salt. Where two headings read alike, the source gives them in different places. Numbered stars: 1 amine (or outer) side, 2 acyl side, 3 side chain; on linkers, the order of the positions; unused ones are H or OH. Bridge positions count the residues as written; N and C are the ends. Square brackets hold non-standard residues; d marks the D form. Peptide text beside a SMILES is read from it. * marks the point of attachment. pTerphenylCO(4''-OnC5H11) = CCCCCOc1ccc(-c2ccc(-c3ccc(C(=O)*)cc3)cc2)cc1; Orn(4R-OH,5R-OH) = O=C([C@H](C[C@@H](O)[C@@H](O)N[*:3])N[*:1])[*:2]; hTyr(3S-OH,4S-OH) = N[C@H](C(=O)O)[C@H](O)[C@@H](O)c1ccc(O)cc1; Pro(3S-OH,4S-Me) = C[C@H]1CN[C@H](C(=O)O)[C@H]1O; Hyp = O=C(O)[C@@H]1C[C@@H](O)CN1

System: PRKACA-PRKAR2A interaction (SmBiT-PRKACA / LgBiT-PRKAR2A), protein kinase A
Set-up: NanoLuc complementation counter-screen in cell extract, PRKACA with PRKAR2A, loss of luminescence, detects NanoLuc interference
Details: counter-screen for NanoLuc interference, 0.5 h, 20 µM, inhibitor

| Structure (SMILES) | Inh (PKA) [%] | Inh (PKA) (Inh (PKA)) [%] |
| --- | --- | --- |
| CN[C@H](CC(C)C)C(=O)N[C@H]1C(=O)N[C@@H](CC(N)=O)C(=O)N[C@H]2C(=O)N[C@H]3C(=O)N[C@H](C(=O)N[C@H](C(=O)O)c4cc(O)cc(O)c4-c4cc3ccc4O)[C@H](O)c3ccc(c(Cl)c3)Oc3cc2cc(c3O[C@@H]2O[C@H](CO)[C@@H](O)[C@H](O)[C@H]2O[C@H]2C[C@](C)(N)[C@H](O)[C@H](C)O2)Oc2ccc(cc2Cl)[C@H]1O [UM0142186:01, Vancomycin hydrochloride] | -0.993 | – |
| CCCCCOc1ccc(-c2ccc(-c3ccc(C(=O)N[C@H]4C[C@@H](O)[C@@H](O)NC(=O)[C@@H]5[C@@H](O)[C@@H](C)CN5C(=O)[C@H]([C@@H](C)O)NC(=O)[C@H]([C@H](O)[C@@H](O)c5ccc(O)cc5)NC(=O)[C@@H]5C[C@@H](O)CN5C(=O)[C@H]([C@@H](C)O)NC4=O)cc3)cc2)cc1 [UM0142187:01, Anidulafungin] ({pTerphenylCO(4''-OnC5H11)}-[Orn(4R-OH,5R-OH)]T[Hyp][hTyr(3S-OH,4S-OH)]T[Pro(3S-OH,4S-Me)]; lactam 1-C) | 1.476 | – |
| CCOC(=O)[C@@H](N)CCC(=O)N[C@@H](CSCc1ccccc1)C(=O)N[C@@H](C(=O)OCC)c1ccccc1 [UM0142188:01, Ezatiostat hydrochloride] | – | 1.044 |
| COc1cc(F)c(F)c(Nc2ccc(I)cc2F)c1NS(=O)(=O)C1(C[C@H](O)CO)CC1 [UM0142191:01, Refametinib] | 65.39 | – |
| C[S+]([O-])c1ccc(-c2nc(-c3ccc(F)cc3)c(-c3ccncc3)[nH]2)cc1 (stereo not shown) [UM0142194:01, SB 203580 hydrochloride] | – | 15.97 |
| CN(C)C(=O)c1ccc(S(=O)(=O)c2ccc(NC(=O)[C@@](C)(O)C(F)(F)F)c(Cl)c2)cc1 [UM0142195:01, AZD7545] | 0.1491 | – |
| COc1cc2ncnc(Sc3nnc(C)s3)c2cc1OC [UM0142197:01, SKLB1002] | -0.2342 | – |
| COc1ccc(S(=O)(=O)N(CCO)c2ccccc2CN(C)C/C=C/c2ccc(Cl)cc2)cc1 [UM0142198:01, KN-93 hydrochloride] | – | 38.66 |
| CC(C)(C)NCC(O)c1cc(O)cc(O)c1 (stereo not shown) [UM0142204:01, Terbutaline Sulfate] | 1.128 | – |
| CNC[C@H](O)c1ccc(O)c(O)c1 [UM0142209:01, L-Adrenaline] | 7.349 | – |
| COCCc1ccc(OCC(O)CNC(C)C)cc1 (stereo not shown) [UM0142210:01, Metoprolol Tartrate] | 1.896 | – |
| CC(C)(C)NCC(O)c1ccc(O)c(CO)c1 (stereo not shown) [UM0142213:01, Salbutamol Sulfate] | -0.5821 | – |
| COc1ccc(C[C@@H]2c3cc(OC)c(OC)cc3CC[N@+]2(C)CCC(=O)OCCCCCOC(=O)CC[N@@+]2(C)CCc3cc(OC)c(OC)cc3[C@H]2Cc2ccc(OC)c(OC)c2)cc1OC [UM0142215:01, Cisatracurium Besylate] | 2.146 | – |
| Cc1cccc(Cc2c[nH]cn2)c1C [UM0142216:01, Detomidine HCl] | 4.249 | – |
| COc1cc2c(cc1OC)CC(=O)N(CCCN(C)C[C@H]1Cc3cc(OC)c(OC)cc31)CC2 [UM0142218:01, Ivabradine HCl] | -0.5336 | – |
| Cc1cccc(C(C)c2c[nH]cn2)c1C (stereo not shown) [UM0142219:01, Medetomidine HCl] | 7.933 | – |
| CN1[C@@H]2CC(O)C[C@H]1[C@@H]1O[C@@H]12 (stereo partly shown) [UM0142220:01, Scopine] | 1.123 | – |
| N=C(N)NC(=N)NCCc1ccccc1 [UM0142225:01, Phenformin HCl] | 1.045 | – |
| CC(C)(C#N)c1cc(Cn2cncn2)cc(C(C)(C)C#N)c1 [UM0142230:01, Anastrozole] | 5.113 | – |

| Structure (SMILES) | Inh (PKA) [%] | Inh (PKA) (Inh (PKA)) [%] |
| --- | --- | --- |
| COc1ccc2[nH]c([S@@+]([O-])Cc3ncc(C)c(OC)c3C)nc2c1 [UM0142233:01, Esomeprazole Sodium] | – | 0.8501 |
| CCCC(CCC)C(=O)O [UM0142234:01, Divalproex Sodium] | – | 2.043 |
| CCOC(=O)C1=C(C)NC(C)=C(C(=O)OC)C1c1cccc([N+](=O)[O-])c1 (stereo not shown) [UM0142235:01, Nitrendipine] | 91.42 | – |
| COc1cc2nccc(Oc3ccc(NC(=O)C4(C(=O)Nc5ccc(F)cc5)CC4)cc3)c2cc1OC [UM0142237:01, Cabozantinib malate (XL184)] | – | 10.79 |
| CNC(=O)c1cc(Oc2ccc(NC(=O)Nc3cc(C(C)(C)C)nn3-c3ccc4ncccc4c3)c(F)c2)ccn1 [UM0142239:01, DCC-2036 (Rebastinib)] | 12.64 | – |
| O=C1Nc2ccc(I)cc2/C1=C/c1cc(Br)c(O)c(Br)c1 [UM0142240:01, GW5074] | 70.55 | – |
| CC(C)(C)c1nc(-c2cccc(NS(=O)(=O)c3c(F)cccc3F)c2F)c(-c2ccnc(N)n2)s1 [UM0142241:01, Dabrafenib (GSK2118436)] | – | 30.14 |
| CC1=C(C(=O)OC(C)C)C(c2cccc([N+](=O)[O-])c2)C(C(=O)OC2CN(C(c3ccccc3)c3ccccc3)C2)=C(N)N1 (stereo not shown) [UM0142244:01, Azelnidipine] | 35.77 | – |
| CCCC(=O)OCOC(=O)C1=C(C)NC(C)=C(C(=O)OC)C1c1cccc(Cl)c1Cl (stereo not shown) [UM0142245:01, Clevidipine Butyrate] | 81.79 | – |
| CCOC(=O)C1=C(C)NC(C)=C(C(=O)OC)C1c1cccc(Cl)c1Cl (stereo not shown) [UM0142246:01, Felodipine] | 92.04 | – |
| CCOC(=O)C1=C(C)NC(C)=C(C(=O)OCC)C1c1ccccc1/C=C/C(=O)OC(C)(C)C [UM0142247:01, Lacidipine] | 92.96 | – |
| Nc1nccc(Oc2ccc(NC(=O)c3c[nH]cc(-c4ccc(F)cc4)c3=O)cc2F)c1Cl [UM0142257:01, BMS-794833] | 54.88 | – |
| CC(C(=O)O)c1cccc(C(=O)c2ccccc2)c1 (stereo not shown) [UM0142261:01, Ketoprofen] | -0.4888 | – |
| CC1(C)Cc2c(-c3ccccc3)c(-c3ccc(Cl)cc3)c(CC(=O)O)n2C1 [UM0142263:01, Licofelone] | 28.18 | – |
| Cc1ccc(Nc2c(F)cccc2Cl)c(CC(=O)O)c1 [UM0142264:01, Lumiracoxib] | 7.46 | – |
| COc1cc(-c2ncn(/C=C\C(=O)OC(C)C)n2)cc(C(F)(F)F)c1 [UM0142266:01, KPT-185] | 22.3 | – |
| O=C(/C=C\n1cnc(-c2cc(C(F)(F)F)cc(C(F)(F)F)c2)n1)N1CC(F)(F)C1 [UM0142267:01, KPT-276] | 9.545 | – |
| CCCN[C@H]1CCc2nc(N)sc2C1 [UM0142273:01, Pramipexole] | -0.01445 | – |
| CCOC(=O)c1ccc(N2NC(=O)/C(=C/c3ccc([N+](=O)[O-])o3)C2=O)cc1 [UM0142276:01, PYR-41] | 36.3 | – |

Continued, values first:

| Inh (PKA) [%] | Inh (PKA) (Inh (PKA)) [%] | Structure (SMILES) |
| --- | --- | --- |
| 1.846 | – | c1cc(OCCN2CCCCC2)cc(-c2n[nH]c3ccc(-c4nnc[nH]4)cc23)c1 [UM0142189:01, CC-401] |
| – | 10.44 | CC(=O)Oc1cc2c(s1)CCN(C(C(=O)C1CC1)c1ccccc1F)C2 (stereo not shown) [UM0142193:01, Prasugrel hydrochloride] |
| 22.65 | – | C[C@@H]1CCNC(=O)c2cc3ccc(C(=O)Nc4nc5ccccc5n4CCCN(C)C)cc3n21 [UM0142196:01, BIX 02565] |
| 9.933 | – | O=C1c2ccccc2C(=O)c2oc(-c3cccnc3)nc21 [UM0142199:01, SJB3-019A] |
| -0.4463 | – | c1ccc2c(c1)CCCC2C1=NCCN1 (stereo not shown) [UM0142214:01, Tetrahydrozoline HCl] |
| 29.29 | – | CCC(=O)Nc1cccc(Oc2nc(Nc3ccc(N4CCN(C)CC4)cc3OC)ncc2Cl)c1 [UM0142226:01, WZ4003] |
| 15.4 | – | Cc1ccc(C(=O)Nc2ccc(CN3CCN(C)CC3)c(C(F)(F)F)c2)cc1C#Cc1cnc2[nH]ncc2c1 [UM0142238:01, GZD824] |
| -0.8766 | – | CCCCN1CCCCC1C(=O)Nc1c(C)cccc1C (stereo not shown) [UM0142248:01, Bupivacaine HCl] |
| 0.7845 | – | CCCCN1CCCC[C@H]1C(=O)Nc1c(C)cccc1C [UM0142248:02, Levobupivacaine HCl] |
| 10.23 | – | CCc1c(C(=O)NCCc2ccc(N3CCCCC3)cc2)[nH]c2ccc(Cl)cc12 [UM0142252:01, Org 27569] |
| 0.5333 | – | CCN1/C(=C/C(C)=O)Sc2ccc(OC)cc21 [UM0142254:01, TG003] |
| 39.56 | – | Cn1cc(-c2[nH]c3cc(NC(=O)[C@H](N)C4CCCCC4)cc4c3c2C=NNC4=O)cn1 [UM0142256:01, PF-477736] |
| 5.292 | – | CN1CCN(C2CCN(C(=O)Nc3cc(Oc4ccc(NC(=O)C5(C(=O)Nc6ccc(F)cc6)CC5)c(F)c4)ccn3)CC2)CC1 [UM0142258:01, Golvatinib (E7050)] |
| 33.4 | – | CN1C(C(=O)Nc2ccccn2)=C(O)c2sc(Cl)cc2S1(=O)=O [UM0142259:01, Lornoxicam] |
| 0.3149 | – | CCc1cccc2c3c([nH]c12)C(CC)(CC(=O)O)OCC3 (stereo not shown) [UM0142260:01, Etodolac] |
| – | -1.185 | O=C(c1ccccc1)c1ccc2n1CCC2C(=O)O (stereo not shown) [UM0142262:01, Ketorolac tromethamine salt] |
| 16.72 | – | CC(C(=O)O)c1ccc2c(c1)CC(=O)c1ccccc1S2 (stereo not shown) [UM0142265:01, Zaltoprofen] |
| 12.01 | – | O=C1[C@@H]2[C@H]3CC[C@H](C3)[C@@H]2C(=O)N1C[C@@H]1CCCC[C@H]1CN1CCN(c2nsc3ccccc23)CC1 [UM0142271:01, Lurasidone HCl] |
| 0.7269 | – | CCN1CCCC1CNC(=O)c1cc(S(=O)(=O)CC)c(N)cc1OC (stereo not shown) [UM0142272:01, Amisulpride] |
| 6.997 | – | OCCOCCN1CCN(C2=Nc3ccccc3Sc3ccccc32)CC1 [UM0142275:01, Quetiapine Fumarate] |
| 10.84 | – | COc1cc2c(cc1-c1c(C)noc1C)ncc1[nH]c(=O)n([C@H](C)c3ccccn3)c12 [UM0142279:01, I-BET151 (GSK1210151A)] |
| 4.433 | – | C[C@]12CC[C@@H]3c4ccc(O)cc4CC[C@H]3[C@@H]1CC[C@@H]2OC(=O)CCC1CCCC1 [UM0142280:01, Estradiol Cypionate] |
| 7.202 | – | C=CC[C@]1(O)CC[C@H]2[C@@H]3CCC4=CC(=O)CCC4=C3C=C[C@@]21C [UM0142281:01, Altrenogest] |
